According to US11806339B2, “Combination therapy of Axl inhibitor and EGFR tyrosine kinase inhibitor” (Daiichi Sankyo Company, Limited, priority 2017, dated 2023):
Structures can show the parent of a compound that is named as a salt.

Key:
HCC827 cells = experiment: In vivo effect of combined use of Compound A and osimertinib on subcutaneously transplanted HCC827 tumors (estimated tumor volume); set-up: species or system nude mouse;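 further: subcutaneous xenografts in female nude mice, tumor axes measured by caliper over time, volume as major axis × minor axis²/2, dosing from Day 1 five days weekly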
Protocol: (§1) 0.1 mL of the prepared cell suspension was subcutaneously transplanted to each nude mouse (female, 5 weeks old). […] The administration was started on the day (Day 1) following the grouping date and carried out five times a week (Saturday and Sunday were set to drug holidays). […] The major axis (mm) and minor axis (mm) of each tumor were measured over time using an electronic digital caliper. The estimated tumor volume was calculated according to the expression (1) given below, and plotted. Also, the body weight was measured over time using an automatic balance for small animals. The rate of change in body weight (Change in body weight (%)) was calculated according to the expression (2) given below. […] Estimated tumor volume (mm^3)=Mean estimated tumor volume of individuals per group (1) Estimated tumor volume of each individual=An×Bn^2/2
An: Major axis of the tumor at Day n
(§2) Bn: Minor axis of the tumor at Day n Change in body weight (%)=Mean rate of change in body weights of individuals per group (2) Rate of change in body weight of each individual=(1−BWn/BWs)×100

[1] = Change in body weight and general symptoms in HCC827 tumor-bearing mice
Protocol: as §1, §2
BWn: Body weight at Day n
BWs: Body weight at the initial day of administration

[2] = Day 0, Compound A 12.5 mg/kg, bid
[3] = Day 0, Compound A 25 mg/kg, bid
[4] = Day 0, Compound A 50 mg/kg, bid
[5] = Day 4, Compound A 12.5 mg/kg, bid
[6] = Day 4, Compound A 25 mg/kg, bid
[7] = Day 4, Compound A 50 mg/kg, bid
[8] = Day 7, Compound A 12.5 mg/kg, bid
[9] = Day 7, Compound A 25 mg/kg, bid
[10] = Day 7, Compound A 50 mg/kg, bid
[11] = Day 11, Compound A 12.5 mg/kg, bid
[12] = Day 11, Compound A 25 mg/kg, bid
[13] = Day 11, Compound A 50 mg/kg, bid
[14] = Day 14, Compound A 12.5 mg/kg, bid
[15] = Day 14, Compound A 25 mg/kg, bid
[16] = Day 14, Compound A 50 mg/kg, bid
[17] = Day 18, Compound A 12.5 mg/kg, bid
[18] = Day 18, Compound A 25 mg/kg, bid
[19] = Day 18, Compound A 50 mg/kg, bid
[20] = Day 21, Compound A 12.5 mg/kg, bid
[21] = Day 21, Compound A 25 mg/kg, bid
[22] = Day 21, Compound A 50 mg/kg, bid
[23] = Day 25, Compound A 12.5 mg/kg, bid
[24] = Day 25, Compound A 25 mg/kg, bid
[25] = Day 25, Compound A 50 mg/kg, bid
[26] = Day 28, Compound A 25 mg/kg, bid
[27] = Day 11, osimertinib 3 mg/kg, qd
[28] = Day 14, osimertinib 3 mg/kg, qd
[29] = Day 18, osimertinib 3 mg/kg, qd
[30] = Day 21, osimertinib 3 mg/kg, qd
[31] = Day 25, osimertinib 3 mg/kg, qd
[32] = Day 28, osimertinib 3 mg/kg, qd
[33] = Day 32, osimertinib 3 mg/kg, qd
[34] = Day 35, osimertinib 3 mg/kg, qd
[35] = Day 39, osimertinib 3 mg/kg, qd
[36] = Day 46, osimertinib 3 mg/kg, qd
[37] = Day 49, osimertinib 3 mg/kg, qd
[38] = Day 53, osimertinib 3 mg/kg, qd
[39] = Day 56, osimertinib 3 mg/kg, qd
[40] = Day 60, osimertinib 3 mg/kg, qd
[41] = Day 63, osimertinib 3 mg/kg, qd
[42] = Day 67, osimertinib 3 mg/kg, qd
[43] = Day 74, osimertinib 3 mg/kg, qd
[44] = Day 77, osimertinib 3 mg/kg, qd
[45] = Day 81, osimertinib 3 mg/kg, qd
[46] = Day 84, osimertinib 3 mg/kg, qd
[47] = Day 88, osimertinib 3 mg/kg, qd
[48] = Day 91, osimertinib 3 mg/kg, qd
[49] = Day 95, osimertinib 3 mg/kg, qd
[50] = Day 100, osimertinib 3 mg/kg, qd

COc1cc(-c2cnc(N)c(-c3ccc(NC(=O)c4cn(CC5CCOCC5)cc(-c5ccc(C)cn5)c4=O)cc3F)c2)ccc1OC[C@H]1COCCO1 [Compound A, N-[4-(2-amino-5-{4-[(2R)-1,4-dioxan-2-ylmethoxy]-3-methoxyphenyl}pyridin-3-yl)-3-fluorophenyl]-5-methyl-4′-oxo-1′-(tetrahydro-2H-pyran-4-ylmethyl)-1′,4′-dihydro-2,3′-bipyridine-5′-carboxamide sulfate hydrate]
Mean estimated tumor volume (HCC827 cells; [2]): 269.0 mm^3 | Mean estimated tumor volume (HCC827 cells; [3]): 273.7 mm^3 | Mean estimated tumor volume (HCC827 cells; [4]): 279.7 mm^3 | Mean estimated tumor volume (HCC827 cells; [5]): 376.3 mm^3 | Mean estimated tumor volume (HCC827 cells; [6]): 366.6 mm^3 | Mean estimated tumor volume (HCC827 cells; [7]): 386.5 mm^3 | Mean estimated tumor volume (HCC827 cells; [8]): 446.8 mm^3 | Mean estimated tumor volume (HCC827 cells; [9]): 458.8 mm^3 | Mean estimated tumor volume (HCC827 cells; [10]): 468.3 mm^3 | Mean estimated tumor volume (HCC827 cells; [11]): 580.4 mm^3 | Mean estimated tumor volume (HCC827 cells; [12]): 550.8 mm^3 | Mean estimated tumor volume (HCC827 cells; [13]): 579.7 mm^3 | Mean estimated tumor volume (HCC827 cells; [14]): 647.2 mm^3 | Mean estimated tumor volume (HCC827 cells; [15]): 631.7 mm^3 | Mean estimated tumor volume (HCC827 cells; [16]): 676.8 mm^3 | Mean estimated tumor volume (HCC827 cells; [17]): 759.0 mm^3 | Mean estimated tumor volume (HCC827 cells; [18]): 718.2 mm^3 | Mean estimated tumor volume (HCC827 cells; [19]): 816.3 mm^3 | Mean estimated tumor volume (HCC827 cells; [20]): 835.6 mm^3 | Mean estimated tumor volume (HCC827 cells; [21]): 792.0 mm^3 | Mean estimated tumor volume (HCC827 cells; [22]): 856.2 mm^3 | Mean estimated tumor volume (HCC827 cells; [23]): 1013.6 mm^3 | Mean estimated tumor volume (HCC827 cells; [24]): 939.4 mm^3 | Mean estimated tumor volume (HCC827 cells; [25]): 1037.5 mm^3 | Mean estimated tumor volume (HCC827 cells; [26]): 1097.1 mm^3 | Mean change in body weight [1, 2]: 0.0% | Mean change in body weight [1, 3]: 0.0% | Mean change in body weight [1, 4]: 0.0% | Mean change in body weight [1, 5]: 1.3% | Mean change in body weight [1, 6]: 0.6% | Mean change in body weight [1, 7]: 0.9% | Mean change in body weight [1, 8]: 0.7% | Mean change in body weight [1, 9]: 1.8% | Mean change in body weight [1, 10]: 1.4% | Mean change in body weight [1, 11]: 1.2% | Mean change in body weight [1, 12]: 1.0% | Mean change in body weight [1, 13]: 2.9% | Mean change in body weight [1, 14]: 0.4% | Mean change in body weight [1, 15]: 0.0% | Mean change in body weight [1, 16]: 2.4% | Mean change in body weight [1, 17]: 3.6% | Mean change in body weight [1, 18]: 0.6% | Mean change in body weight [1, 19]: 3.6% | Mean change in body weight [1, 20]: 4.8% | Mean change in body weight [1, 21]: 3.1% | Mean change in body weight [1, 22]: 6.7% | Mean change in body weight [1, 23]: 4.4% | Mean change in body weight [1, 24]: 4.6% | Mean change in body weight [1, 25]: 5.1% | Mean change in body weight [1, 26]: 3.0%

C=CC(=O)Nc1cc(Nc2nccc(-c3cn(C)c4ccccc34)n2)c(OC)cc1N(C)CCN(C)C [osimertinib, N-(2-{[2-(dimethylamino)ethyl](methyl)amino}-4-methoxy-5-{[4-(1-methyl-1H-indol-3-yl)pyrimidin-2-yl]amino}phenyl)propen-2-amide]
Mean estimated tumor volume (HCC827 cells; Day 0, osimertinib 3 mg/kg, qd): 259.3 mm^3 | Mean estimated tumor volume (HCC827 cells; Day 4, osimertinib 3 mg/kg, qd): 93.1 mm^3 | Mean estimated tumor volume (HCC827 cells; Day 7, osimertinib 3 mg/kg, qd): 56.7 mm^3 | Mean estimated tumor volume (HCC827 cells; [27]): 38.7 mm^3 | Mean estimated tumor volume (HCC827 cells; [28]): 33.1 mm^3 | Mean estimated tumor volume (HCC827 cells; [29]): 30.9 mm^3 | Mean estimated tumor volume (HCC827 cells; [30]): 29.6 mm^3 | Mean estimated tumor volume (HCC827 cells; [31]): 32.0 mm^3 | Mean estimated tumor volume (HCC827 cells; [32]): 32.0 mm^3 | Mean estimated tumor volume (HCC827 cells; [33]): 35.5 mm^3 | Mean estimated tumor volume (HCC827 cells; [34]): 42.1 mm^3 | Mean estimated tumor volume (HCC827 cells; [35]): 44.9 mm^3 | Mean estimated tumor volume (HCC827 cells; [36]): 53.3 mm^3 | Mean estimated tumor volume (HCC827 cells; [37]): 63.7 mm^3 | Mean estimated tumor volume (HCC827 cells; [38]): 80.8 mm^3 | Mean estimated tumor volume (HCC827 cells; [39]): 92.4 mm^3 | Mean estimated tumor volume (HCC827 cells; [40]): 103.3 mm^3 | Mean estimated tumor volume (HCC827 cells; [41]): 134.1 mm^3 | Mean estimated tumor volume (HCC827 cells; [42]): 146.2 mm^3 | Mean estimated tumor volume (HCC827 cells; [43]): 182.1 mm^3 | Mean estimated tumor volume (HCC827 cells; [44]): 220.1 mm^3 | Mean estimated tumor volume (HCC827 cells; [45]): 285.7 mm^3 | Mean estimated tumor volume (HCC827 cells; [46]): 341.2 mm^3 | Mean estimated tumor volume (HCC827 cells; [47]): 404.1 mm^3 | Mean estimated tumor volume (HCC827 cells; [48]): 509.3 mm^3 | Mean estimated tumor volume (HCC827 cells; [49]): 602.4 mm^3 | Mean estimated tumor volume (HCC827 cells; [50]): 727.5 mm^3 | Day at which the tumor became bigger than its size at the start of administration (acquired resistance) (HCC827 cells; mouse, in vivo, 3 mg/kg): 81 days | Effect on tumor immediately after administration (HCC827 cells; osimertinib administered alone, 3 mg/kg qd): tumor regression effect | Mean change in body weight ([1]; Day 0, osimertinib 3 mg/kg, qd): 0.0% | Mean change in body weight ([1]; Day 4, osimertinib 3 mg/kg, qd): 0.1% | Mean change in body weight ([1]; Day 7, osimertinib 3 mg/kg, qd): 1.0% | Mean change in body weight [1, 27]: 0.3% | Mean change in body weight [1, 28]: 1.1% | Mean change in body weight [1, 29]: 0.9% | Mean change in body weight [1, 30]: 2.7% | Mean change in body weight [1, 31]: 2.6% | Mean change in body weight [1, 32]: 1.1% | Mean change in body weight [1, 33]: 2.0% | Mean change in body weight [1, 34]: 3.1% | Mean change in body weight [1, 35]: 4.0% | Mean change in body weight ([1]; Day 42, osimertinib 3 mg/kg, qd): 3.2% | Mean change in body weight [1, 36]: 4.5% | Mean change in body weight [1, 37]: 5.0% | Mean change in body weight [1, 38]: 5.1% | Mean change in body weight [1, 39]: 5.3% | Mean change in body weight [1, 40]: 5.4% | Mean change in body weight [1, 41]: 5.7% | Mean change in body weight [1, 42]: 6.4% | Mean change in body weight ([1]; Day 70, osimertinib 3 mg/kg, qd): 5.7% | Mean change in body weight [1, 43]: 7.4% | Mean change in body weight [1, 44]: 6.6% | Mean change in body weight [1, 45]: 8.9% | Mean change in body weight [1, 46]: 8.0% | Mean change in body weight [1, 47]: 8.8% | Mean change in body weight [1, 48]: 9.6% | Mean change in body weight [1, 49]: 11.7% | Mean change in body weight ([1]; Day 98, osimertinib 3 mg/kg, qd): 11.2% | Mean change in body weight [1, 50]: 11.9%
